Results published in PubChem BioAssay AID248 (DTP/NCI, 2004).
Inconclusive results and toxic doses are left out. Rule as the data show it: active = T/C of 150% or more; inactive = T/C below 125%.

Test system: L1210 leukemia ip in BDF1 mice, survival T/C
Experiment: NCI In Vivo Anticancer Drug Screen. Data for tumor model L1210 Leukemia (intraperitoneal) in B6D2F1 (BDF1) mice
Settings: endpoint: mean survival time, higher = longer survival
Procedure, shortened: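 In this screen, tumor-bearing mice given compound are compared to those given vehicle, and their survival values are reported as a treated-to-control quotient.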

Measured: T/C

CN(C)CCOC(=O)c1cccc(CCBr)c1
inactive: dose: 87.5 mg/kg/injection, schedule: Q01DX009 (ip), vehicle: saline 103 % of control | dose: 175.0 mg/kg/injection, schedule: Q01DX009 (ip), vehicle: saline 92 % of control | dose: 350.0 mg/kg/injection, schedule: Q01DX009 (ip), vehicle: saline 104 % of control

CC1(CCCc2ccc([N+](=O)[O-])cc2)N=C(N)N=C(N)N1c1ccccc1 (stereo unspecified)
inactive: dose: 25.0 mg/kg/injection, schedule: Q04DX003 (ip), vehicle: Klucel (hydroxypropylcellulose) (HPC) 103 % of control | dose: 50.0 mg/kg/injection, schedule: Q04DX003 (ip), vehicle: Klucel (hydroxypropylcellulose) (HPC) 100 % of control | dose: 100.0 mg/kg/injection, schedule: Q04DX003 (ip), vehicle: Klucel (hydroxypropylcellulose) (HPC) 121 % of control
